The text below walks through data of patent publication US6790867B2, “Compositions and method for treating infection in cattle and swine” (Schering-Plough Animal Health Corporation, priority 2002, dated 2004).

This data set is described as follows: in vivo. The note with it: both sexes, bovine, 2.2 mg/kg. Details: species or system cattle. The procedure:
In a second study, the pharmacokinetic profile of the second active component in Formulation 1A, flunixin, was examined. The pharmacokinetic profile of flunixin was evaluated following administration to cattle as the approved single entity flunixin meglumine product, […], and as the combination product Formulation 1A. This study was conducted in four phases using six cattle (3 males, 3 females). All animals received […] intravenously (IV) in the first phase. This was followed, after a washout period, by the administration of […] intramuscularly (IM) to 3 cows and […] subcutaneously (SQ) to 3 cows. In the next phase the animals were crossed over and received […] or SQ. In the final phase, all six cattle received the flunixin/florfenicol combination product (Formulation 1A). All animals received flunixin at a dose of 2.2 mg/kg, regardless of the formulation or route of administration. Blood samples for determination of flunixin concentration were collected at 0, 0.17, 0.5, 0.75, 1, 2, 3, 4, 6, 8, 12 and 24 hours after dosing. At the final phase of the study, the 6 cattle were given Formulation 1A at a dose of 10 mL per 75 kg SQ (equivalent to 40 mg/kg of florfenicol and 2.2 mg/kg of flunixin). The kinetics of flunixin when administered as Formulation 1A are different from the kinetics of flunixin when administered as […]. As such, the clinical dose response of Formulation 1A were ascertained in a subsequent study (described below).

SMILES strings stand for the structures.

`Cc1c(Nc2ncccc2C(=O)O)cccc1C(F)(F)F` [Flunixin, flunixin meglumine]: for the setting “im”, the AUC(0-inf) – broadly, the area under the concentration-time curve extrapolated to infinity – is 10500 ng·h/mL; the maximum concentration (Cmax) (usually the maximum level reached in the sampled fluid or tissue) was found to be 3240 ng/mL; the Tmax (as a rule, the time at which the peak concentration occurs) was found to be 30.6 min. Besides, the AUC(0-inf) (iv) was found to be 13600 ng·h/mL. Also, under “sc”, the AUC(0-inf) was determined as 10900 ng·h/mL, the Cmax is 2860 ng/mL and the Tmax was determined as 32.4 min.
